The target of experiment [1] is thrombin-stimulated platelets (Homo sapiens, UniProt P05106+P08514). Kind of experiment: Fibrinogen-Binding Assay (125I-fibrinogen binding to platelets). The following applies: for pIC50: 125I-fibrinogen 0.176 μmol/liter, thrombin-stimulated platelets, read-out: Inhibition of 125I-Fibrinogen Binding to Platelets IC50. The procedure: Platelets are washed free of plasma constituents by the albumin density-gradient technique of Walsh, P. N., et al., Br. J. Haematol. […] After these additions, the final platelet count in the mixture is 1×10^11 /liter. After incubation for an additional 30 minutes at 22°-25° C., bound and free ligand are separated by centrifuging 50 μl of the mixture through 300 μl of 20% sucrose at 12,000×g for 4 minutes. The platelet pellet is then separated from the rest of the mixture to determine platelet-bound radioactivity. Nonspecific binding is measured in mixtures containing an excess of unlabeled ligand. […] The IC50 is derived by plotting residual fibrinogen binding against the logarithm of the sample compound's concentration.

Experiment [2] deals with fixed activated platelets (Homo sapiens, UniProt P05106+P08514). Nature of the experiment: Platelet Aggregation Assay (fibrinogen-mediated aggregation of fixed-activated platelets). Type of experiment: cell-based. The following applies: for pIC50: fixed activated platelets, human fibrinogen 250 μg/ml, read-out: Inhibition of Fibrinogen Mediated Platelet Aggregation IC50; for inhibition at 25 µM: read-out: Inhibition of Fibrinogen Mediated Platelet Aggregation % inhibition at 25 μM; for inhibition at 100 µM: read-out: Inhibition of Fibrinogen Mediated Platelet Aggregation % inhibition at 100 μM. The procedure: PLATELET AGGREGATION ASSAY
Preparation of Fixed-Activated Platelets
To the activated platelets is added paraformaldehyde to a final concentration of 0.50% and this incubated at room temperature for 30 minutes. The fixed activated platelets are then collected by centrifugation at 650×g for 15 minutes.
Platelet Aggregation Assay
The fixed activated platelets are incubated with a selected dose of the compound to be tested for platelet aggregation inhibition for one minute and aggregation initiated by addition of human fibrinogen to a final concentration of 250 μg/ml. A platelet aggregation profiler Model PAP-4 is used to record the platelet aggregation.

pIC50: −log10 of the molar value. Non-standard residues stand in square brackets, D forms with d. Residues, ends and D or L forms follow the SMILES beside them. Aun = NCCCCCCCCCCC(=O)O; Ahx = NCCCCCC(=O)O; NEtG = CCNCC(=O)O

Chain of thrombin-stimulated platelets (P08514 32-1039): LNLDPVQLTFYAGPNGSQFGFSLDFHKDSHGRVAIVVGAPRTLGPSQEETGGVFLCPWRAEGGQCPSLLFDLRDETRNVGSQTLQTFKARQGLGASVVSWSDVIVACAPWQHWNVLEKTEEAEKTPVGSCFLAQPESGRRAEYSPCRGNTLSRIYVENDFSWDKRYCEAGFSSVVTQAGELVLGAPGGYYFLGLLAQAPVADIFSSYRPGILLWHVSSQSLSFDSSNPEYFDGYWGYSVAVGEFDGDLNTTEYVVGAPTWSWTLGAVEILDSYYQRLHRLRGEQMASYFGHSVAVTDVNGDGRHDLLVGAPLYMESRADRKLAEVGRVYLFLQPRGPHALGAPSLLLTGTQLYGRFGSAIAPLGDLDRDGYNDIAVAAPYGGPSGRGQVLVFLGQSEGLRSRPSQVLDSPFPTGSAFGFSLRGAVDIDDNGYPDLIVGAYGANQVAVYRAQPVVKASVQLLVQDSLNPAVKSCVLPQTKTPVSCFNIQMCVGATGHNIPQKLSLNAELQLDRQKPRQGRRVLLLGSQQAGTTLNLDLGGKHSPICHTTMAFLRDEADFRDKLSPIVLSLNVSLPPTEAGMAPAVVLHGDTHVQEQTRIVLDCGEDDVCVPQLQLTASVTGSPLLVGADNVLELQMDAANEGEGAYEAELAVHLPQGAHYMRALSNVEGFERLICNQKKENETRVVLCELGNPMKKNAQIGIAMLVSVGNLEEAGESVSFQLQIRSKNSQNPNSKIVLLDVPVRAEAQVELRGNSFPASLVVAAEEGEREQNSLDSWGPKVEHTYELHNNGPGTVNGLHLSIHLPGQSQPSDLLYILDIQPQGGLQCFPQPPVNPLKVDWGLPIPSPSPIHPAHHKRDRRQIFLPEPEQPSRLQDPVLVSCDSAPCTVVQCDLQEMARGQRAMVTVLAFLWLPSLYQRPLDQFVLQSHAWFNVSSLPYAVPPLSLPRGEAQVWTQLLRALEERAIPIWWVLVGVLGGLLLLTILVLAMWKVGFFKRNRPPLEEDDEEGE
Chain of thrombin-stimulated platelets (P05106 27-788): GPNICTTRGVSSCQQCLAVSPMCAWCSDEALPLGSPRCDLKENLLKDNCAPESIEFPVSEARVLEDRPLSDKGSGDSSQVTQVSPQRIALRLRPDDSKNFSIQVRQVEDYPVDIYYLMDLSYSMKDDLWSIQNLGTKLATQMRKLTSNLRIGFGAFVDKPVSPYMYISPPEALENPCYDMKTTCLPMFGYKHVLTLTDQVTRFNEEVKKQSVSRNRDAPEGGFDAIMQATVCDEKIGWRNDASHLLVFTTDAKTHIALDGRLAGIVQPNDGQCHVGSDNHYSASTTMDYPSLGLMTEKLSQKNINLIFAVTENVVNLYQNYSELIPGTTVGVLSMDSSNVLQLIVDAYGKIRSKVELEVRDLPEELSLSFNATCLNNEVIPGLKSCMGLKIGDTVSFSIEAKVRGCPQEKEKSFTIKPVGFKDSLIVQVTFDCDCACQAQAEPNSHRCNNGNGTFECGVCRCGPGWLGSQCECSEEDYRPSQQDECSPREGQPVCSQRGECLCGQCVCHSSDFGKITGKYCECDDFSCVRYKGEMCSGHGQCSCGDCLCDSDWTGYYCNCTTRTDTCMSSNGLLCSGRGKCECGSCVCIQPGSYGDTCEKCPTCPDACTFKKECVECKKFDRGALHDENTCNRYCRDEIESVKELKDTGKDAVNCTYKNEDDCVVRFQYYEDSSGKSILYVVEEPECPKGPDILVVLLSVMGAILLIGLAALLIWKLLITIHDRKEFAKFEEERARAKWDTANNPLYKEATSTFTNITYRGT
Chain of fixed activated platelets (P08514 32-1039): as the sequence (P08514 32-1039) above
Chain of fixed activated platelets (P05106 27-788): as the sequence (P05106 27-788) above

For orientation: pIC50 means the IC50 on a negative log10 scale, so that one unit is a factor of ten. Take `CCN(CC(=O)N[C@@H](CC(=O)O)C(=O)N[C@H](C(=O)O)C(C)C)C(=O)CCCNC(=N)N` [4-Guanidinobutanoyl-N-(ethyl)glycyl-L-aspartyl-L-valine]: the pIC50 in experiment [1] was 6.35. Also, in experiment [2], the pIC50 is 5.57 and the inhibition at 25 µM turned out to be 94%.

As for `CC(C)CN(CC(=O)N[C@@H](CC(=O)O)C(=O)N[C@H](C(=O)O)C(C)C)C(=O)CCCCCNC(=N)N` [6-Guanidinohexanoyl-N-isobutylglycyl-L-aspartyl-L-valine], the pIC50 in experiment [1] was 7.00. In experiment [2], the pIC50 is 5.82 and the inhibition at 25 µM amounted to 86%.

With `CCN(CC(=O)N[C@@H](CC(=O)O)C(=O)N[C@H](C(=O)O)C(C)C)C(=O)CCCCCCn1ccnc1` [7-(Imidazol-1-yl)heptanoyl-N-(ethyl)glycyl-L-aspartyl-L-valine], the pIC50 in experiment [1] was 5.89. Also, in experiment [2], the pIC50 was 4.97 and the inhibition at 25 µM turned out to be 82%.

`CC(C)[C@H](NC(=O)[C@H](C)NC(=O)CNC(=O)[C@@H](N)CCCNC(=N)N)C(=O)O` [L-arginylglycyl-L-alanyl-L-valine] (H-RGAV-OH): in experiment [1] (read-out: Inhibition of 125I-Fibrinogen Binding to Platelets: Inhibited <50% at 50 μg/ml), the inhibition at 50 µg/mL was below 50%. In addition, in experiment [2], the pIC50 is below 4.00 and the inhibition at 100 µM amounted to 17.5%.

On to `CC(C)[C@H](NC(=O)[C@H](CC(=O)O)NC(=O)CCCCCCCCCNC(=N)N)C(=O)O` [10-Guanidinodecanoyl-L-aspartyl-L-valine], for which, in experiment [1], the pIC50 was 5.60. In experiment [2], the pIC50 was 4.99 and the inhibition at 25 µM was found to be 77%.

For the compound `N=C(N)NCCCCCCCC(=O)N[C@@H](CC(=O)O)C(=O)NCCCCNC(=N)N` [8-Guanidinooctanoyl-L-aspartyl-(des-carboxy)-L-arginine], in experiment [1], the pIC50 is 6.00. In addition, in experiment [2], the pIC50 was 5.72 and the inhibition at 25 µM worked out at 91%.

Take `CC(C)[C@H](NC(=O)[C@H](CC(=O)O)NC(=O)CN(C)C(=O)CCCNC(=N)N)C(=O)O` [4-Guanidinobutanoyl-L-sarcosyl-L-aspartyl-L-valine]: the pIC50 in experiment [1] was 5.48. Also, in experiment [2], the pIC50 is 4.97 and the inhibition at 25 µM was found to be 84%.

Take `CC[C@H](C)[C@H](NC(=O)[C@H](CC(=O)O)NC(=O)CCCCCCCCNC(=N)N)C(=O)NCCCCNC(=N)N` [9-Guanidinononanoyl-L-aspartyl-isoleucine-4-guanidinobutyl amide]: the pIC50 in experiment [1] is 6.62. Besides, in experiment [2], the pIC50 is 5.24 and the inhibition at 25 µM was 95%.

For the compound `CC(C)[C@H](NC(=O)[C@H](CC(=O)O)NC(=O)CNC(=O)CCCCCn1ccnc1)C(=O)O` [6-(Imidazol-1-yl)-hexanoyl-glycyl-L-aspartyl L-valine], in experiment [1], the pIC50 was 5.55. Further, in experiment [2], the pIC50 is 4.77 and the inhibition at 25 µM stood at 67%.

Take `CC(C)[C@H](NC(=O)[C@H](CC(=O)O)NC(=O)CN(C(=O)CCCCCNC(=N)N)C(C)C)C(=O)O` [6-Guanidinohexanoyl-N-(2-propyl)glycyl-L-aspartyl-L-valine]: the pIC50 in experiment [1] was 5.96. In addition, in experiment [2], the pIC50 was 5.07 and the inhibition at 25 µM came to 83%.

Take `CC(C)[C@H](NC(=O)[C@H](CC(=O)O)NC(=O)CCCCCCCCCCNC(=N)N)C(=O)O` [11-guanidinoundecanoyl-L-aspartyl-L-valine]: the negative logarithm of the IC50 (pIC50) in experiment [1] is 4.77. Moreover, the inhibition at 25 µM in experiment [2] was found to be 36%.

Take `CCC(C)COC(=O)[C@H](CCCNC(=N)N)NC(=O)[C@H](CC(=O)O)NC(=O)CCCCCCCCNC(=N)N` (stereo partly drawn) [9-Guanidinononanoyl-L-aspartyl-L-arginine-2-methyl-butylester]: the pIC50 in experiment [1] is 6.92. In addition, in experiment [2], the pIC50 was 6.14 and the inhibition at 25 µM was 97%.

As for `CCN(CC(=O)N[C@@H](CC(=O)O)C(=O)N[C@@H](CCCNC(=N)N)C(=O)O)C(=O)CCCCCNC(=N)N` [6-Guanidinohexanoyl-N-ethylglycyl-L-aspartyl-L-arginine], the pIC50 in experiment [1] was 6.62. In experiment [2], the pIC50 was 5.85 and the inhibition at 25 µM is 97%.

As to `CC(C)[C@H](NC(=O)[C@H](CC(=O)O)NC(=O)[C@@H](N)CCCNC(=N)N)C(=O)O` [L-arginyl-L-aspartyl-L-valine] (H-Arg-Asp-Val-OH), the pIC50 in experiment [1] was below 3.70. In addition, in experiment [2], the pIC50 was 4.00 and the inhibition at 100 µM was 49%.

As to `CCN(CC(=O)N[C@@H](CC(=O)O)C(=O)N[C@H](C(=O)O)C(C)C)C(=O)CCCCCn1ccnc1C` [6-(2-Methylimidazol-1-yl)hexanoyl-N-(ethyl)-glycyl-L-aspartyl-L-valine], the pIC50 in experiment [1] was 6.46. In addition, in experiment [2], the pIC50 is 5.72 and the inhibition at 25 µM amounted to 93%.

Turning to `CC(C)[C@H](NC(=O)[C@H](CC(=O)O)NC(=O)CNC(=O)CCCCNC(=N)N)C(=O)O` [N-(5-guanidinopentanoyl)glycyl-L-aspartyl-L-valine], the pIC50 in experiment [1] was 6.15; in experiment [2], 5.64. The inhibition at 100 µM in experiment [2] came to 92%.

Take `CC[C@H](C)[C@H](NC(=O)CNC(=O)[C@H](CC(=O)O)NC(=O)CCCCCCCCNC(=N)N)C(=O)O` [9-Guanidinononanoyl-L-aspartyl-glycyl-L-isoleucine]: the pIC50 in experiment [1] is 4.40. Further, in experiment [2], the pIC50 is 4.60 and the inhibition at 25 µM came out at 54%.

As for `CC(C)C[C@H](NC(=O)[C@H](CC(=O)O)NC(=O)CN(C)C(=O)CCCCCNC(=N)N)C(=O)O` [6-Guanidinohexanoyl-L-sarcosyl-L-aspartyl-L-leucine], the pIC50 in experiment [1] was 7.05. Moreover, in experiment [2], the pIC50 was 6.48 and the inhibition at 25 µM turned out to be 88%.

With `CC(C)[C@H](NC(=O)[C@H](CC(=O)O)NC(=O)CNC(=O)CCCCCNC(=N)N)C(=O)O` [6-Guanidinohexanoyl-glycyl-L-aspartyl-L-valine], the pIC50 in experiment [1] is 5.85. For the same compound, in experiment [2], the pIC50 was 5.19 and the inhibition at 25 µM was 90%.

Turning to `CC(C)[C@H](NC(=O)[C@H](CC(=O)O)NC(=O)CCCCCCCCCCN)C(=O)O` [11-Aminoundecanoyl-L-aspartyl-L-valine] (H-[Aun]-Asp-Val-OH), the pIC50 in experiment [1] is 6.24; in experiment [2] it was 5.77. The inhibition at 25 µM in experiment [2] was 0.98%.

Turning to `N=C(N)NCCCCCCCCC(=O)N[C@@H](CC(=O)O)C(=O)N[C@@H](CCCNC(=N)N)C(=O)N[C@@H](CCCNC(=N)N)C(=O)O` [9-Guanidinononanoyl-L-aspartyl-L-arginyl-L-arginine], the pIC50 in experiment [1] is 4.82. In experiment [2], the pIC50 was 4.82 and the inhibition at 25 µM turned out to be 68%.

For the compound `CCN(CC(=O)N[C@@H](CC(=O)O)C(=O)N[C@H](C(=O)O)C(C)C)C(=O)CCCCCN` [6-Aminohexanoyl-N-ethylglycyl-L-aspartyl-L-valine] (H-[Ahx][NEtG]DV-OH), in experiment [1], the pIC50 is 5.40. Further, in experiment [2], the pIC50 is 5.39 and the inhibition at 25 µM is 92%.

Consider `CCN(CC(=O)N[C@@H](CC(=O)O)C(=O)N[C@@H](Cc1ccc(O)cc1)C(=O)O)C(=O)CCCCCNC(=N)N` [6-Guanidinohexanoyl-N-(ethyl)glycyl-L-aspartyl-L-tyrosine], for which, in experiment [1], the negative-log IC50 (pIC50) is 6.74. For the same compound, in experiment [2], the pIC50 is 5.90 and the inhibition at 25 µM was found to be 95%.

In the case of `CC(C)[C@H](NC(=O)[C@H](CC(=O)O)NC(=O)/C=C/CCCCCCNC(=N)N)C(=O)O` [9-Guanidinonon-2-(E)-enoyl-L-aspartyl-L-valine], in experiment [1], the pIC50 was 6.37. Further, the inhibition at 25 µM in experiment [2] turned out to be 24%.
